Results as given in patent publication US10675251B2, “Particles containing branched polymers” (The University of Liverpool, priority 2014, dated 2020).

Test: Drug loading (encapsulation) in co-nanoprecipitated particles
Type: physicochemical
Experimental: During a typical nanoparticle preparation, 5.5 mL of a 1 mg/mL acetone solution of efavirenz, ritonavir or lopinavir is added to a vial and left to evaporate overnight. To this vial 25 mg of the branched polymer and 25 mg of the polymer diblock were added and dissolved in 10 mL of acetone during 6-8 hours to ensure complete solubilisation. 1 mL of the 5 mg/mL solution of polymers and dissolved drug was added to 5 mL of stirring distilled water (500 rpm) and left for 24 hours for complete acetone evaporation (final concentration of polymer 1 mg/mL). During a typical nanoparticle preparation 5.5 mL of a 1 mg/mL acetone solution of irinotecan was added to a vial and left to evaporate overnight. To this vial, 25 mg of the branched polymer and 25 mg of the polymer diblock were added and dissolved in 10 mL of acetone during 6-8 hours to ensure complete solubilisation. 1 mL of the 5 mg/mL solution of polymers and dissolved drug was added to 5 mL of stirring water (500 rpm) and left for 24 hours for complete acetone evaporation.

Row | Structure (SMILES) | drug loading achieved
1 | CCc1c2c(nc3ccc(OC(=O)N4CCC(N5CCCCC5)CC4)cc13)-c1cc3c(c(=O)n1C2)COC(=O)[C@]3(O)CC [Irinotecan] | effectively encapsulated at 10 wt % or 15 wt %
2 | O=C1Nc2ccc(Cl)cc2[C@@](C#CC2CC2)(C(F)(F)F)O1 [Efavirenz] | 25 wt %
